Columns and labels:
[1] = tested on: estrogen receptor preparations of rat prostates; assay: Competitive 3H-estradiol binding to estrogen receptor of rat prostate cytosol; settings: for prost. ER/uterus ER: ratio RBA prostate-ER / RBA uterus-ER
[2] = target: T1, human estrogen receptor β (Homo sapiens, UniProt Q92731); assay: Binding to human estrogen receptor β produced by Baculovirus/SF-9 expression system; settings: for hERβ RBA / ERβ/ERα: Table 2; for hERβ RBA: human ERβ from Baculovirus/SF-9, estradiol = 100; for ERβ/ERα: quotient RBA ERβ / RBA ERα
T1 construct: made in house; host or cells: Baculovirus/SF-9

hERβ [3] = settings: Table 1; estradiol = 100; cited from Kuiper et al. (1996); cited from earlier work
[4] = target: T2, estrogen receptor preparations of rat uteri (Rattus norvegicus, UniProt P06211); assay: Competitive 3H-estradiol binding to estrogen receptor of rat uterus cytosol
T2 construct: The preparation of rat uterus cytosol, as well as the receptor test with the ER-containing cytosol; from tissue; host or cells: rat uterus cytosol
T2 sequence (P06211 1-600): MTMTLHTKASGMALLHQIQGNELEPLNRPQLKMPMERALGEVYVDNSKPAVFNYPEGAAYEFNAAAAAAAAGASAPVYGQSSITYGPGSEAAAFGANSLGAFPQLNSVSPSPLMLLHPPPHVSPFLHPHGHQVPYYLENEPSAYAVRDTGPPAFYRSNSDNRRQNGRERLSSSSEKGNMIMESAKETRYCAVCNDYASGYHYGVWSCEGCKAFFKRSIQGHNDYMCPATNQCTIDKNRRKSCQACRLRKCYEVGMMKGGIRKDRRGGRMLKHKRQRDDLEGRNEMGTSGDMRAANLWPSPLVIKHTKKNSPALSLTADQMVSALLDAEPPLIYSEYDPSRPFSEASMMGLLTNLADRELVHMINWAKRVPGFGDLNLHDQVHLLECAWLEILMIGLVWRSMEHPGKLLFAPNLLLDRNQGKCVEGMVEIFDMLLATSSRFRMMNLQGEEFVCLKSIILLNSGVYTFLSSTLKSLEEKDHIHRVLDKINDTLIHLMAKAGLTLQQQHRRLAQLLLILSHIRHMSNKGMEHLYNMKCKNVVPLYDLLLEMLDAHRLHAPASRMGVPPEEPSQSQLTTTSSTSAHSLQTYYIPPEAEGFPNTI

[5] = target: T3, human estrogen receptor α (Homo sapiens, UniProt P03372); assay: Binding to human estrogen receptor α produced by Baculovirus/SF-9 expression system; settings: Table 2; human ERα from Baculovirus/SF-9, estradiol = 100
T3 construct: made in house; host or cells: Baculovirus/SF-9
T3 sequence (P03372 1-595): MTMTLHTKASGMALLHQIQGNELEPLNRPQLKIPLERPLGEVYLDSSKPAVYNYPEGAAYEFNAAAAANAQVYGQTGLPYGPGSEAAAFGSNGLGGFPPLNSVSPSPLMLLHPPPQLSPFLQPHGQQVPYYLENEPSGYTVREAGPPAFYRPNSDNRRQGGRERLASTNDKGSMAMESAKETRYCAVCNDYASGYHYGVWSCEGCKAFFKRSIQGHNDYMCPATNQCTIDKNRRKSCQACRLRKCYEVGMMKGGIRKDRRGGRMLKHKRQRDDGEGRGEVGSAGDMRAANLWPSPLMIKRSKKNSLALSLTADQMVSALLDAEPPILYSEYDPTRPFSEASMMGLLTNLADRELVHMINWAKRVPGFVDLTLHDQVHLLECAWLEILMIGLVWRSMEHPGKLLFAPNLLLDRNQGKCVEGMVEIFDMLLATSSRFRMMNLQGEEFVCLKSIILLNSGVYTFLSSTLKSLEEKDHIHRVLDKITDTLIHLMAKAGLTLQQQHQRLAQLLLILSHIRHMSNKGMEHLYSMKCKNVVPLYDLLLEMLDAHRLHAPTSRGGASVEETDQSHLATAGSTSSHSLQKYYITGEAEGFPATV

[6] = tested on: uterus of ovariectomized female rats; assay: Bone studies: uterus stimulation (uterus weight) in ovariectomized rats; assay type: in vivo, rat; settings: s.c. once daily for 28 days
Description: (§1) Three-month-old female rats are ovariectomized and treated once daily with the test compound immediately after the operation for 28 days. The administration is carried out subcutaneously in arachis oil/ethanol. The animals are sacrificed on the day after the last administration, and tibia as well as uteri are removed. The uteri are weighed, fixed and worked up for histological studies. The determination of bone density is carried out ex vivo on prepared long bones by means of pQCT (quantitative computer tomography). The measurements are made at a distance of 4–6 mm from the ball of the joint of the proximal tibia.
(§2) Estra-1,3,5(10)-triene-3,16α-diol reflects this in vivo in the greatly different amounts, which produce a 50% bone protection [3 μg/animal] or a 50% uterus stimulation [30 μg/animal], relative to the bone mass loss, which can be measured in ovariectomized, untreated female rats 28 days after the ovariectomy unlike in intact animals that are subjected to sham operations.

[7] = tested on: trabecular bone density in ovariectomized female rats; assay: Bone studies: bone density of proximal tibia (pQCT) in ovariectomized rats; assay type: in vivo, rat; settings: s.c. once daily for 28 days, relative to bone mass loss of untreated ovariectomized vs sham-operated animals
Description: as §1
The ovariectomy reduces the density of the trabecular bone in the measured area by about 400 mg of Ca^2+/cm^3 to about 300 mg of Ca^2+/cm^3. By treatment with a compound of general formula I according to this invention, the degradation of the bone density is prevented or inhibited. The bone density in the proximal tibia was measured.
as §2

hERβ [8] = assay: Relative binding affinity to hERβ, cited from Kuiper et al.; design: species or system human; settings: Table 1; quotient of cited RBA hERβ / hERα
Description: In this case, it is assumed that ERβ predominates in the rat prostates over ERα, and ERα predominates in rat uteri over ERβ.

[9] = Table 1, 3H-estradiol as ligand, estradiol = 100

T1 sequence (Q92731 whole entry): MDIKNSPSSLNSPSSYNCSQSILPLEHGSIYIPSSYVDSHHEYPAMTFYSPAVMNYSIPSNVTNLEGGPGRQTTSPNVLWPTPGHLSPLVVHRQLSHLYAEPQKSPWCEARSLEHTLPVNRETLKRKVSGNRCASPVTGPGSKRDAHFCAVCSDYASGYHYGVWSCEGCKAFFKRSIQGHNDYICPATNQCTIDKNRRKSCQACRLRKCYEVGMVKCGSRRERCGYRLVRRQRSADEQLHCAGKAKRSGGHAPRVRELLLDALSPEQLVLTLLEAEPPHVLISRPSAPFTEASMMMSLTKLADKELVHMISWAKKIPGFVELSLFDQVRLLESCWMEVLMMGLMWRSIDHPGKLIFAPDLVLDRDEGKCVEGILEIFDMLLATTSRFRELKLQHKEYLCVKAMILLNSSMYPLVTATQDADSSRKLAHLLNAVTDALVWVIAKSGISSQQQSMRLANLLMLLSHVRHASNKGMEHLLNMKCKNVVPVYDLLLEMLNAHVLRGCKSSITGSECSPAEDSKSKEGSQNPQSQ

| SMILES | Rat prost. ER (RBA) ([1]; Table 2, estradiol = 100) | prost. ER/uterus ER ([1]; Table 2) | hERβ RBA [2] | ERβ/ERα [2] | Rat uterus ER (RBA) ([4]; Table 2, estradiol = 100) | hERα RBA [5] | Rat prost. ER (RBA) [1, 9] | also measured |
| --- | --- | --- | --- | --- | --- | --- | --- | --- |
| C[C@]12CC[C@@H]3c4ccc(O)cc4CC[C@H]3[C@@H]1C[C@@H](O)C2=O [16α-hydroxyestrone] | – | – | – | – | – | – | – | RBA value on rat prostate estrogen receptor relative to RBA value on rat uterus estrogen receptor [1]: five times better; binding to human estrogen receptor β relative to human estrogen receptor α [2]: three times better |
| C[C@]12CC[C@@H]3c4ccc(O)cc4CC[C@H]3[C@@H]1C[C@@H](O)[C@@H]2O [Estriol] | – | – | – | – | – | – | – | hERβ RBA (hERβ [3]): 21 |
| C[C@]12CC[C@@H]3c4ccc(O)cc4CC[C@H]3[C@@]13CC[C@]2(O)[C@H](O)C3 [Cyclotriol] | 17 | 0.3 | 10 | 0.3 | 50 | 36 | – | – |
| O=c1oc2cc(O)ccc2c2oc3cc(O)ccc3c12 [Coumestrol] | – | – | 100 | – | – | – | – | – |
| O=C(c1ccc(OCCN2CCCCC2)cc1)c1c(-c2ccc(O)cc2)sc2cc(O)ccc12 [Raloxifene] | 1.5 | – | 9 | – | – | – | – | – |
| C[C@]12CC[C@@H]3c4ccc(O)cc4CC[C@H]3[C@@H]1CC[C@H]2O [17α-Estradiol] | – | – | – | – | – | – | 1.3 | – |
| C[C@]12CC[C@@H]3c4ccc(O)cc4CC[C@H]3[C@@H]1C[C@@H](O)C2 [16α-Estradiol, estra-1,3,5(10)-triene-3,16α-diol] | – | – | – | – | – | – | – | Rat prost. ER (RBA) ([1]; Table 3): 50; 50% uterus stimulation [6]: 30 μg/animal; Receptor binding ERβ (RBA)/ERα (RBA) ([2]; Table 3): 6; Rat uterus ER (RBA) ([4]; Table 3): 9; 50% bone protection [7]: 3 μg/animal |
| C#C[C@@]1(O)C[C@@H]2CC[C@@H]3[C@H](CC[C@@]4(C)[C@H]3CC[C@@]4(O)C#C)[C@@]2(C)C1 [Anordiol] | <0.01 | <0.01 | 0.2 | 0.01 | 6.6 | 15 | – | – |
| C[C@]12CC[C@H]3[C@@H](CC=C4C[C@@H](O)CC[C@@]43C)[C@@H]1CC[C@@H]2O [5-Androstenediol] | 5 | 50 | 10 | 6 | 0.1 | 1.7 | 5 | ERβ/ERα (hERβ [8]): 3; prost. ER/uterus ER ([1]; Table 1): 50; hERβ RBA (hERβ [3]): 17; Rat uterus ER (RBA) [4, 9]: 0.1 |
| O=c1c(-c2ccc(O)cc2)coc2cc(O)cc(O)c12 [Genisteine] | 10 | – | – | – | – | – | 10 | – |
